The values that follow come from US20260007621A1, “Pharmaceutical Combinations for Treatment” (priority 2022, published 2026).

In assay [1] the test system is therapeutic relief of cough, cold and allergy symptoms. The experiment in a line: Inventor's findings on relief from GFN or antihistamines combined with IBF+APAP (and PE); no method given. The conditions noted are these: for therapeutic relief expressed as GFN amount: 'it is suggested'. The assay is classed as in vivo, human. As for the experimental part: A normal 4 hourly dosage of DM and GFN is 20 mg and 400 mg respectively.

The subject of assay [2] is recurring coughs, sneezing, headache, runny nose, pain, cold, fever, sore throat, sinus pressure. Briefly: Clinical study: one subject rates relief from new pharmaceutical combinations against previous medication. It is filed as in vivo, human. The settings on record: 2.5 mg cetirizine, 5 mg bilastine, 2.5 mg loratadine or 30 mg fexofenadine, each dose after 3 hours; versus 10, 20, 10 or 120 mg once. As for the experimental part:
The subject had recurring coughs, sneezing, headache, runny nose, pain, cold, fever, sore throat, sinus pressure etc. They took medication including DM+GFN combination as well as antihistamines to cure it, namely: • a. Mucinex Expectorant Tablets (600 mg GFN/dose): 1 dose per 12 hours; • b. […] Labixten (20 mg Bilastine/dose): 1 dose per 24 hours. […] On each recurrence of cough and other symptoms a new pharmaceutical combination was given. The subject would then provide feedback on the improvement of their symptoms and rate the performance of the pharmaceutical composition in comparison to their previous medication experience.

The conditions of assay [3]: 6.25 mg PE administered with 500 mg APAP; cited from earlier work.
The conditions of assay [4]: in vivo; cited from earlier work.

“Also recorded” adds a separate entry of the source.

`COc1ccccc1OCC(O)CO` (stereo not shown) [GFN, guaifenesin]: the “therapeutic relief expressed as GFN amount” value in assay [1] (100 mg GFN taken with 175-200 mg IBF and 275-575 mg APAP) came out at 143 mg GFN; in assay [1] (200 mg GFN taken with 175-200 mg IBF and 275-575 mg APAP), 286 mg GFN. In addition, the “increase in effectiveness of GFN when combined with IBF+APAP” value in assay [1] (in vivo) was “about 45%”. Further, the “GFN dose that, combined with IBF+APAP, gives the relief of a normal 4 hourly dosage of 20 mg DM and 400 mg GFN” value in assay [1] (without DM) worked out at 280 mg. For `CC(C)(C(=O)O)c1ccc(C(O)CCCN2CCC(C(O)(c3ccccc3)c3ccccc3)CC2)cc1` (stereo not shown) [fexofenadine], in assay [2], the “quarter dose administered 4 times daily versus normal full 24-hour dose of the same ingredient at once” value is reported as “better effect; also recorded: performed therapeutically better”.

Regarding `CNC[C@H](O)c1cccc(O)c1` [PE, Phenylephrine], the “PE dosage of similar effect” value in assay [3] is reported as around 10 mg. Besides, the “effectiveness compared with PSE” value in assay [4] is reported as “not as effective as PSE”. With `CCOC(=O)N1CCC(=C2c3ccc(Cl)cc3CCc3cccnc32)CC1` [loratadine], the “quarter dose administered 4 times daily versus normal full 24-hour dose of the same ingredient at once” value in assay [2] was “better effect; also recorded: performed therapeutically better”.

As for `CCOCCn1c(C2CCN(CCc3ccc(C(C)(C)C(=O)O)cc3)CC2)nc2ccccc21` [bilastine], the “quarter dose administered 4 times daily versus normal full 24-hour dose of the same ingredient at once” value in assay [2] is listed as “better effect; also recorded: performed therapeutically better”.

As for `O=C(O)COCCN1CCN(C(c2ccccc2)c2ccc(Cl)cc2)CC1` (stereo not shown) [cetirizine], in assay [2], the “quarter dose administered 4 times daily versus normal full 24-hour dose of the same ingredient at once” value is recorded as “better effect; also recorded: performed therapeutically better”.
